What is called IC50 is the midpoint of a concentration-inhibition curve.

For this test, the system named is P388. The experiment in a line: Cytotoxicity against mouse P388 cells after 72 hrs by MTT assay. The class given is functional, cell-based. The note with it: P388, 72 h. In general terms: Tetrazolium dyes change colour on reduction, which living cells bring about.

Take `CC(=O)CC(C)(C)N.CC(C)=CCC[C@@H](C)/C=C/CCOS(=O)(=O)O`: half-maximal inhibition (IC50) was put at 290 µM.

These data come from ChEMBL document CHEMBL1158135, “Sulfated alkenes from the echinus Temnopleurus hardwickii” (J Nat Prod, 2006).
